Calls of active or inactive are those of the source.
Legend:
[1] = target: Photoreceptor-specific nuclear receptor (Homo sapiens, UniProt Q9Y5X4); assay type: functional, cell-based;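 also: CHO-S cells with Gal4-NCOR and VP16-NR2E3 two-hybrid luciferase reporter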
[2] = target: T1, Probable nicotinate-nucleotide adenylyltransferase (Staphylococcus aureus (strain N315), UniProt P65502); assay type: functional, Staphylococcus aureus subsp. aureus N315; conditions: read-out: IC50_Mean;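 as to IC50 Mean: confirmatory dose-response retesting of NadD inhibitor hits first found in an ultra-high-throughput screen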
T1 sequence (P65502 whole entry): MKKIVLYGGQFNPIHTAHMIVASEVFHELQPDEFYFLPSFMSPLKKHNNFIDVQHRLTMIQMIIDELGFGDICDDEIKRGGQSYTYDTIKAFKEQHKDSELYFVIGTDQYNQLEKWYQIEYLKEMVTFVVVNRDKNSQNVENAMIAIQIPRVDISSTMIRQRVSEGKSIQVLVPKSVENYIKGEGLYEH

[3] = target: T1, Probable nicotinate-nucleotide adenylyltransferase; assay type: functional, Staphylococcus aureus subsp. aureus N315
[4] = target: T2, Carboxy-terminal domain RNA polymerase II polypeptide A small phosphatase 1 (Homo sapiens, UniProt Q9GZU7); experiment: CTDSP1 inhibitors, concentration-response, biochemical, absorbance readout, ultra-high-throughput screen actives (AID 540297); assay type: functional
T2 sequence (Q9GZU7 whole entry): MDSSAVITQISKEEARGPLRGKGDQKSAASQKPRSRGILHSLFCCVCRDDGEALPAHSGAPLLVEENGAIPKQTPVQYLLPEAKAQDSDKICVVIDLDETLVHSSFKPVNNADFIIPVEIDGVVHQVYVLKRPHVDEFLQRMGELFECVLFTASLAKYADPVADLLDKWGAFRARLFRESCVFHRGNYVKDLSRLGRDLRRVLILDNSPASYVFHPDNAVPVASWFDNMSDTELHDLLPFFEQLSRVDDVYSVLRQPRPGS

[5] = target: T3, Voltage-gated N-type calcium channel alpha-1B subunit/Amyloid beta A4 precursor protein-binding family A member 1 (Homo sapiens, UniProt Q00975+Q02410); assay type: protein assay
T3 sequence (Q00975 whole entry): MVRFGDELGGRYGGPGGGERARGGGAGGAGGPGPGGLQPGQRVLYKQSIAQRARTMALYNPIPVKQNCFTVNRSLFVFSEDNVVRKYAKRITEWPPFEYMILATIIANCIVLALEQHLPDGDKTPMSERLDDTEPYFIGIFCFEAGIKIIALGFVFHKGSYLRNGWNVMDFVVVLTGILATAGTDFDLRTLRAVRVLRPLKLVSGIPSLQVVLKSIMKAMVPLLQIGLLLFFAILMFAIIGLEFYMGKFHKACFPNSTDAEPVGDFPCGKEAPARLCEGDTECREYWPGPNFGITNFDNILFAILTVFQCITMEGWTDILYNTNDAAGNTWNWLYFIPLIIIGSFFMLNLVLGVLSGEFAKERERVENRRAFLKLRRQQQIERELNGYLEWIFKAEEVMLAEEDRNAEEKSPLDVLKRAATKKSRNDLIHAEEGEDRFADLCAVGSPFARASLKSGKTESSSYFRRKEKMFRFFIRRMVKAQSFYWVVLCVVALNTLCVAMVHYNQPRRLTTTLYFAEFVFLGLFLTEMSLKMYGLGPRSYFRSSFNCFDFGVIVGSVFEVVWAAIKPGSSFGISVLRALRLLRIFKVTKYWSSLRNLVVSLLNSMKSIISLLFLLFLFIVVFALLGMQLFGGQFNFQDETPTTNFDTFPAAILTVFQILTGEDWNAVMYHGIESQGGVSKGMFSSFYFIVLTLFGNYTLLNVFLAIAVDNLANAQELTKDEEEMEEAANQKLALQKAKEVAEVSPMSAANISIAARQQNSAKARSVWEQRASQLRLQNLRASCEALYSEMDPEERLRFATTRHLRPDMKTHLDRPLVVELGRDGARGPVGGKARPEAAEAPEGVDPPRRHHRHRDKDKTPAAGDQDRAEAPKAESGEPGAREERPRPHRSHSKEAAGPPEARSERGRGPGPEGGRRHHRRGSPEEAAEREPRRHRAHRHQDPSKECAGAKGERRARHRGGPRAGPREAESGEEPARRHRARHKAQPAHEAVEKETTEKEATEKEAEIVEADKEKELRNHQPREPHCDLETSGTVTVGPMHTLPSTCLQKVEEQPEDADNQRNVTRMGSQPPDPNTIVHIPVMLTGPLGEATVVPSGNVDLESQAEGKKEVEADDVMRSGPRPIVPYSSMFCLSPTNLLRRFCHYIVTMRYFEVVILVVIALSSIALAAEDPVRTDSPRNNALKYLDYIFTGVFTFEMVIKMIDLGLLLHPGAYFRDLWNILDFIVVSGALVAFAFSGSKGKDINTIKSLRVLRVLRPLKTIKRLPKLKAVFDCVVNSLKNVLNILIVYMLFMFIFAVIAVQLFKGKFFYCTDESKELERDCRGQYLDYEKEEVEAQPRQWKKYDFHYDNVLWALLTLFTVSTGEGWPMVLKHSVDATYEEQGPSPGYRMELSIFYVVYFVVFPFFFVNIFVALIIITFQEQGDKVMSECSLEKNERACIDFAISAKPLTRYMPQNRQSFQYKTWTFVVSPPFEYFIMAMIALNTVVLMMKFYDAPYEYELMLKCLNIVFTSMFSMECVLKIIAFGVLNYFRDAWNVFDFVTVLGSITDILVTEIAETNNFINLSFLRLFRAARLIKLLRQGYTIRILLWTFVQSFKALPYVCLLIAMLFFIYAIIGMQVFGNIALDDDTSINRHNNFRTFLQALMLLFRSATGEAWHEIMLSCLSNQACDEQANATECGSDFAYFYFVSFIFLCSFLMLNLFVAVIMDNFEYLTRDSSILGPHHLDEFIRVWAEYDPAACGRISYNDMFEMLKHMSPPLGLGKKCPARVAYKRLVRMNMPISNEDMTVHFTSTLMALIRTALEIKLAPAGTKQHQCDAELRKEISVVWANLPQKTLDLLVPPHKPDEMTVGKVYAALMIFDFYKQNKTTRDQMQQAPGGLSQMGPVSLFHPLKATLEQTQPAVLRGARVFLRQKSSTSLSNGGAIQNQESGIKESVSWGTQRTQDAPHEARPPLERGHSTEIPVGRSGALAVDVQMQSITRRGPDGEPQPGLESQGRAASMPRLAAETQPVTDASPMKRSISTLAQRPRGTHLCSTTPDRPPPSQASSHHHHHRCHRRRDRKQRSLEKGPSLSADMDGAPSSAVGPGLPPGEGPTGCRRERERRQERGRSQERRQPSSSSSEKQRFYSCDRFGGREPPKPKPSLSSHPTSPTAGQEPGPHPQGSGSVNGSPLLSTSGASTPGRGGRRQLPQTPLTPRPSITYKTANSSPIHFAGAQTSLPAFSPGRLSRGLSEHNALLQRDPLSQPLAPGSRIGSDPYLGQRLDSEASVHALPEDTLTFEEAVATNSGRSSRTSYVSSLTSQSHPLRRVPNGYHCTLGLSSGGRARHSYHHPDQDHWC
T3 sequence (Q02410 whole entry): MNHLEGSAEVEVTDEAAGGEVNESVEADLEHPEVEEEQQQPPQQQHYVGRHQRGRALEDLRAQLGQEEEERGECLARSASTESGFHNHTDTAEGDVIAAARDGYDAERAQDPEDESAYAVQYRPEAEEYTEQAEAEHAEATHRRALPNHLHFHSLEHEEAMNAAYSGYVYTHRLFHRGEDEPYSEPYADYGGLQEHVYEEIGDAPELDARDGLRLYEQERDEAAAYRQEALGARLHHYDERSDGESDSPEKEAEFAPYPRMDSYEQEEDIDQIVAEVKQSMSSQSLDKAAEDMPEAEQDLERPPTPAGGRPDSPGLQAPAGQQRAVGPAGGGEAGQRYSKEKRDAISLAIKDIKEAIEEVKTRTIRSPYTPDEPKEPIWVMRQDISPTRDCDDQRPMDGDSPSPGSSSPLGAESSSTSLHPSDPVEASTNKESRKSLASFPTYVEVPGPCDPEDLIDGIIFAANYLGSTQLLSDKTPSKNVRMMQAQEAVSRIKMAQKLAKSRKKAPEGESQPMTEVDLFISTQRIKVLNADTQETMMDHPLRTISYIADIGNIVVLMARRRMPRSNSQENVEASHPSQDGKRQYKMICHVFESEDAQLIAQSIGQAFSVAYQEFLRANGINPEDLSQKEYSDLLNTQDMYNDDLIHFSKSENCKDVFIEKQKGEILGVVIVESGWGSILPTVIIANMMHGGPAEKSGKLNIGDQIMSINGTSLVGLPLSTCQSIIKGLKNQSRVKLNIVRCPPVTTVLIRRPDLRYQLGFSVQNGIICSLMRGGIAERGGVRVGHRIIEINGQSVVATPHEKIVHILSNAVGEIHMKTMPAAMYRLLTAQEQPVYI

[6] = target: T4, Low molecular weight phosphotyrosine protein phosphatase (Homo sapiens, UniProt P24666); assay type: functional; conditions: read-out: IC50_Mean
T4 sequence (P24666 whole entry): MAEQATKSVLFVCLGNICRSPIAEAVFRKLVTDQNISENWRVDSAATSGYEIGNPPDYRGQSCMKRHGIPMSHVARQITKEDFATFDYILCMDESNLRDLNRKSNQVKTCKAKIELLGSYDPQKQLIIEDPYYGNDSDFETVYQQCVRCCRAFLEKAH

[7] = target: T3, Voltage-gated N-type calcium channel alpha-1B subunit/Amyloid beta A4 precursor protein-binding family A member 1; assay type: protein assay; remark: listed apart in the source
[8] = system: HEK293; experiment: EBV LMP1 TES2 canonical NF-kB signalling blockers – cell-based, HEK293, luciferase, cherry-pick, dose response (AID 588343); assay type: functional; conditions: Homo sapiens
[9] = target: Fructose-bisphosphate aldolase (Mycobacterium tuberculosis, UniProt P9WQA3); experiment: Fluorescence-based biochemical high throughput dose response assay for inhibitors of the fructose-bisphosphate aldolase (FBA) of M. tuberculosis.; assay type: functional
Chain of Fructose-bisphosphate aldolase (P9WQA3 whole entry, the tested form may be a part): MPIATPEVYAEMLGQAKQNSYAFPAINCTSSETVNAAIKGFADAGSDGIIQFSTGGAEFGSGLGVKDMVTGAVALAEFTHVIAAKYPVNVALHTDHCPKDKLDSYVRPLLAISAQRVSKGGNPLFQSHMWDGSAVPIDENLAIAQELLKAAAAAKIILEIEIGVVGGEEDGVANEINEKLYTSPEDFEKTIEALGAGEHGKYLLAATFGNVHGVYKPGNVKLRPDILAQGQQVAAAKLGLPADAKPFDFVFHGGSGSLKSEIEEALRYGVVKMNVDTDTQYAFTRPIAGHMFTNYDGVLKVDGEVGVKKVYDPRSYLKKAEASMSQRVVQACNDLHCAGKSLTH

[10] = Fluorescence-based cell-based high throughput dose response assay for inhibitors of the interaction of nucleotide-binding oligomerization domain containing 2 (NOD2) and the receptor-interacting serine-threonine kinase 2 (RIPK2).; assay type: functional; conditions: Homo sapiens
[11] = viability loss in HeLa cells – cytotoxicity control for MgcRacGAP inhibitor project, dose response (AID 624300); assay type: functional
[12] = target: T5, Rac GTPase-activating protein 1 (Homo sapiens, UniProt Q9H0H5); experiment: blockers of MgcRacGAP-driven Rac1 GTP hydrolysis – biochemical, ADP Hunter fluorescence, primary and confirmatory, confirmation (AID 624330); assay type: functional
T5 sequence (Q9H0H5 whole entry): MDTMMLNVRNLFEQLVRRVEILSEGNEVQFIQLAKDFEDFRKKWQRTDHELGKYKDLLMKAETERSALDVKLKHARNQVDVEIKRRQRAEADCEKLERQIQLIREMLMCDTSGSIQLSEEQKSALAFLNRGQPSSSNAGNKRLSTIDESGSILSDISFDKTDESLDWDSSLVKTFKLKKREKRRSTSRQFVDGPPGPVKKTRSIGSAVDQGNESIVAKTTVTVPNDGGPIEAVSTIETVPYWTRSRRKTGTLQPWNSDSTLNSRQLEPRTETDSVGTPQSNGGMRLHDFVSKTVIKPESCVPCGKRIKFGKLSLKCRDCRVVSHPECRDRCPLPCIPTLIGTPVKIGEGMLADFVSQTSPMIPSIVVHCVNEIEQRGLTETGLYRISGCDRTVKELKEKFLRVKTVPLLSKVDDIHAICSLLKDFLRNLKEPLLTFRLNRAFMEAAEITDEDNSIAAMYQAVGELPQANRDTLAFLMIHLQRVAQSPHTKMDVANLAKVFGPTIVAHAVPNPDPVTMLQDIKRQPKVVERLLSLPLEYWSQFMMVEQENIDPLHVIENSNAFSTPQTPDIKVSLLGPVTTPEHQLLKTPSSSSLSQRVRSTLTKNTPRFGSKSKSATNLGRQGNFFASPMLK

[13] = target: T6, Galanin receptor type 3 (Homo sapiens, UniProt O60755); experiment: Fluorescence-based cell-based primary high throughput dose response assay to identify antagonists of the Galanin Receptor 3 (GalR3).; assay type: functional
T6 sequence (O60755 whole entry): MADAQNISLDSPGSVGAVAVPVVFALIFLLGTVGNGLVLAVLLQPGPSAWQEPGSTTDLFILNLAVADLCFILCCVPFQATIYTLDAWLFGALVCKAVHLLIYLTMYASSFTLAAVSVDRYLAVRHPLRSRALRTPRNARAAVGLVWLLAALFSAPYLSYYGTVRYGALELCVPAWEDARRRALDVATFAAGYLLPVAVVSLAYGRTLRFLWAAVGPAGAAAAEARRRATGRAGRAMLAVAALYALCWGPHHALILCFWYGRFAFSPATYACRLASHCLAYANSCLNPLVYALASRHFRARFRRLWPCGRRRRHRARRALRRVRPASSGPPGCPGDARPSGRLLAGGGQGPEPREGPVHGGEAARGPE

[14] = system: INS1; experiment: INS-1E survival protection against cytokine death – cell-based, luminescence, retest, dose response (AID 449756); assay type: functional; conditions: Rattus norvegicus;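 also: cell death triggered by IL-1 beta plus TNF-alpha plus IFN-gamma mixture; protective hits raise ATP signal compared with cytokine alone wells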
[15] = target: Protein Wnt-3a (Mus musculus, UniProt P27467); experiment: antagonism of Wnt3a pathway luciferase reporter – Wnt-LIGHT cells, luminescence, selectivity assay for Gli-SUFU antagonist project, dose response (AID 651570); assay type: functional; conditions: read-out: IC50_Mean;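 also: Wnt-LIGHT reporter cells stimulated with conditioned medium from Wnt3a-producing cells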
[16] = target: T7, Short transient receptor potential channel 4 (Mus musculus, UniProt Q9QUQ5); experiment: block of DAMGO-driven TRPC4 calcium entry – cell-based, HEK293 TRPC4/mu-opioid, Fluo-4 calcium, dose response (AID 434942); assay type: functional;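 also: potency of inhibitors blocking the TRPC4 calcium response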
T7 sequence (Q9QUQ5 whole entry): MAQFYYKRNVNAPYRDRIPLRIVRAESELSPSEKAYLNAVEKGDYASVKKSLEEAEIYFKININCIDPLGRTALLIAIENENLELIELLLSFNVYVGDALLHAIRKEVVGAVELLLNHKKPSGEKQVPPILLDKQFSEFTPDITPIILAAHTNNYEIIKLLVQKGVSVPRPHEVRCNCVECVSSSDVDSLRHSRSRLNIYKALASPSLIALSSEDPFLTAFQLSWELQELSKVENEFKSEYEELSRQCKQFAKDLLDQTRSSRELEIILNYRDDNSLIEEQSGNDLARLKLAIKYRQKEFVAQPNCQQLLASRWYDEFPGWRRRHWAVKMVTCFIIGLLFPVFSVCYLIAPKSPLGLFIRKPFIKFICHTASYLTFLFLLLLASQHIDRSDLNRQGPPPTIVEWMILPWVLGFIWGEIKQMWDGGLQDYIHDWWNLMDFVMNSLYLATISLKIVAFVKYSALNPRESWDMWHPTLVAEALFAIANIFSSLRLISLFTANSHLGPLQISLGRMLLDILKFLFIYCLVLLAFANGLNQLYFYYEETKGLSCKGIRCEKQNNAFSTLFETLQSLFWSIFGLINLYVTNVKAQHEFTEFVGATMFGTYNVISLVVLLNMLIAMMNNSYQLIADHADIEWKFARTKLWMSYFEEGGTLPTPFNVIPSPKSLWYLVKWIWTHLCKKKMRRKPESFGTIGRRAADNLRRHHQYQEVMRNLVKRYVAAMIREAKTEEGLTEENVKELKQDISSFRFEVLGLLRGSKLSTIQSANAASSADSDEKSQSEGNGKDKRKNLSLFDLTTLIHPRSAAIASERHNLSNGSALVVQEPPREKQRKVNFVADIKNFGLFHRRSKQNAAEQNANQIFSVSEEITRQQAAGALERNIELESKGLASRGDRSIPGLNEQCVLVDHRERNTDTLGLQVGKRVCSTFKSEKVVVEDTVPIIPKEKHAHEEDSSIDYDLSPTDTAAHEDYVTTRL

[17] = cells; assay type: functional, cell-based; conditions: HEK-CNG
[18] = target: T8, COUP transcription factor 2 (Homo sapiens, UniProt P24468); experiment: Luminescence-based cell-based high throughput dose response assay to identify inhibitors of COUP-TFII (NR2F2).; assay type: functional;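 also: HEK293 cells transiently cotransfected with COUP-TFII expression vector and reporter; luciferase reporter luminescence driven by COUP-TFII from the pX2-168 reporter plasmid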
T8 sequence (P24468 whole entry): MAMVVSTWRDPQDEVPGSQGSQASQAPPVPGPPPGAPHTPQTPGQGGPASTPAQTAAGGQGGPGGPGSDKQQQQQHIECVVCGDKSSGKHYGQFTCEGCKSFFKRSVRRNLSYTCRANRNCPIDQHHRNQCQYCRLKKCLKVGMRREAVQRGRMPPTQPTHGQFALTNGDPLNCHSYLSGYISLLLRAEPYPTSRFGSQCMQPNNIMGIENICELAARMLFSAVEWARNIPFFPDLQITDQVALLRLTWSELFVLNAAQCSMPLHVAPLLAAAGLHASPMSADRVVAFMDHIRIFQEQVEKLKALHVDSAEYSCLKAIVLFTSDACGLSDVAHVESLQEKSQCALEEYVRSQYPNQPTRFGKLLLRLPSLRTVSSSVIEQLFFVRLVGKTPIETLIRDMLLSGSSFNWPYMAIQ

[19] = bead-based luminescence quenchers, dual-tagged ARNT – biochemical, AlphaScreen, cherry-pick, artefact control for ARNT-TACC3 interaction inhibitor project, dose response (AID 651705); assay type: functional;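 also: AlphaScreen bead proximity signal that flags compounds interfering with the detection technology; potency reflects signal decrease which marks the compound as an assay artifact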
[20] = system: H9c2; experiment: cells; assay type: functional, cell-based; conditions: Rattus norvegicus, H9c2, Myocardium;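 also: confirmatory concentration-response retest of ultra-high-throughput screening hits for modulation of myocardial damage; cell death induced by hydrogen peroxide oxidative stress; compound pretreatment for 60 min then peroxide exposure for 2 h; potency is for protecting the cells against peroxide damage rather than for killing them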
[21] = target: Induced myeloid leukemia cell differentiation protein Mcl-1 (Homo sapiens, UniProt Q07820); assay type: functional
[22] = cells; assay type: functional, cell-based
[23] = system: HEK293; experiment: cells; conditions: Homo sapiens
[24] = target: T9, Nuclear receptor subfamily 0 group B member 1 (Homo sapiens, UniProt P51843); assay type: functional, cell-based;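 also: HEK293T cells transfected with SF-1 and DAX-1 plus StAR promoter luciferase reporter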
T9 sequence (P51843 whole entry): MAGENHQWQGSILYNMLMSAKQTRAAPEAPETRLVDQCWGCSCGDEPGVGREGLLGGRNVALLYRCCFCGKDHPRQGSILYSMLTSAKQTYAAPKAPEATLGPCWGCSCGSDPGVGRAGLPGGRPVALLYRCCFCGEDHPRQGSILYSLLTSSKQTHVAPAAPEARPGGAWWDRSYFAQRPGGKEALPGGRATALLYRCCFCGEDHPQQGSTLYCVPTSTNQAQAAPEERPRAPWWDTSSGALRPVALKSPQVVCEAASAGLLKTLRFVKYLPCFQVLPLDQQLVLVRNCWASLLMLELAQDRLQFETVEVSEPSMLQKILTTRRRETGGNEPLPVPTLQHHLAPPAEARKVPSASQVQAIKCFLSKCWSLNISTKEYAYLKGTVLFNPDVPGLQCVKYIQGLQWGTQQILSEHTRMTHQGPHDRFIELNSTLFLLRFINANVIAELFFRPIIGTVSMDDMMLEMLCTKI

[25] = NIH3T3 cell viability loss – ATP luminescence, mouse fibroblasts, counter-screen, dose response (AID 2010); assay type: functional, cell-based;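 also: cells exposed to compound for about 90 hours before reading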
[26] = Trypanosoma cruzi growth suppression in host cells – NIH3T3 host cells, beta-gal luminescence, confirmation (AID 2044); assay type: functional, cell-based;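 also: intracellular parasites grown in NIH/3T3 mouse fibroblasts as host cells; luminescent beta-galactosidase reporter signal from transgenic T. cruzi replicating inside host cells; inhibitors lower the luminescence signal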
[27] = NIH-3T3 fibroblast cytotoxicity, dose response, cytotoxicity control, cell-based, fluorescence, Alamar Blue, secondary assay (AID 2327); assay type: functional;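 also: NIH-3T3 mouse fibroblasts cultured with fluconazole at 8 µg/mL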
[28] = fluconazole-exposed Candida albicans growth modulators – fluorescence, retest, confirmation (AID 2467); assay type: functional, cell-based
[29] = system: HEK293; experiment: cells; conditions: Homo sapiens; remark: listed apart in the source
[30] = target: DNA repair and recombination protein RAD54-like (Homo sapiens, UniProt Q92698); experiment: RAD54 Holliday junction migration blockers – biochemical, fluorescence, cherry-picked samples, dose series, confirmation (AID 651657); assay type: functional
Chain of DNA repair and recombination protein RAD54-like (Q92698 whole entry): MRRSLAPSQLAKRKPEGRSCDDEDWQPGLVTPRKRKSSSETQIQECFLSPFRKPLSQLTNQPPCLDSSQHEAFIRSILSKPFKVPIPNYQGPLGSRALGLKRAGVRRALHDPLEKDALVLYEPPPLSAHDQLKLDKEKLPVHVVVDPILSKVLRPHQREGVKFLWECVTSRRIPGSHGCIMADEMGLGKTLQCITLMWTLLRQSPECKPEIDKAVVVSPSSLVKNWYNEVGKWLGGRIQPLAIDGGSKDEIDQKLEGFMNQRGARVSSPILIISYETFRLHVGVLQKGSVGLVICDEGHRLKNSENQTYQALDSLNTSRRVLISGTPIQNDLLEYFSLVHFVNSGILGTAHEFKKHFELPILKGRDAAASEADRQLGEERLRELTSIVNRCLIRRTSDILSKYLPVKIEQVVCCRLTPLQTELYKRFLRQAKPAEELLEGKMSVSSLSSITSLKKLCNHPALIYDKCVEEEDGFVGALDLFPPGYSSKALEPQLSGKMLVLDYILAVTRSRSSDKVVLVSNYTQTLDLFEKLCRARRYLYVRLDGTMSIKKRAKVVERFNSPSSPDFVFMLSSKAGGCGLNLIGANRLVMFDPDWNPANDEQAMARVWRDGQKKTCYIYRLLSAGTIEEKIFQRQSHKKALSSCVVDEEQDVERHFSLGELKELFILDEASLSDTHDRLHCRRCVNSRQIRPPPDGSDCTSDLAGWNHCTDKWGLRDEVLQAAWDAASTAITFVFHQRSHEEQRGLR

[31] = target: Dual specificity tyrosine-phosphorylation-regulated kinase 1A (Rattus norvegicus, UniProt Q63470); assay type: biochemical, Homo sapiens

Chain of Photoreceptor-specific nuclear receptor (Q9Y5X4 whole entry, the tested form may be a part): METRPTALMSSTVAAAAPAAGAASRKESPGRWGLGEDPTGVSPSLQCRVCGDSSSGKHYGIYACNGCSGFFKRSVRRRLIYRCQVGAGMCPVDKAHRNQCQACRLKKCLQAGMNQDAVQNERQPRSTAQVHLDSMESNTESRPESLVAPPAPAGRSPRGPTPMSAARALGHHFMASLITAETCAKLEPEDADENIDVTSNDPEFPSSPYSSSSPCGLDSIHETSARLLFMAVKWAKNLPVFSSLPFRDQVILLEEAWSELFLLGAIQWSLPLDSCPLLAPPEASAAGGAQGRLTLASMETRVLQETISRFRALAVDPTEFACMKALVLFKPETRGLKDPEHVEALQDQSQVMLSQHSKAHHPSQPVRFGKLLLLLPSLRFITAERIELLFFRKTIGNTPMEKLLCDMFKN

CC(C)(C)c1ccc(CSc2nc(N)cc(O)n2)cc1
IC50 [1]: 5.21 µM (active)

Cc1ccccc1C(=O)Nc1cc[n+](-c2nc3ccccc3nc2[N-]S(=O)(=O)c2ccc(F)cc2)cc1
IC50 [2]: 23.8 µM (active)
IC50 [3]: 5.96 µM (active)

COc1ccc2cc3c(N)nn(C(=O)c4cccc([N+](=O)[O-])c4)c3nc2c1
IC50 [4]: 4.35 µM (active)
IC50 [5]: > 50 µM (inactive)
IC50 [6]: 19.1 µM (active)
IC50 [7]: 12.2 µM (active)
AC50 [8]: 3.08 µM (active)

Cc1ccc(-n2nc3ccc(N)cc3n2)cc1C
IC50 [9]: 0.895 µM (active)

CN(C)CCC(=O)N1C/C(=C/c2ccccc2)C(=O)/C(=C\c2ccccc2)C1
IC50 [10]: 3.78 µM (active)
CC50 [11]: 25 µM (active)
IC50 [12]: 167 µM (active)

Cc1nc2ccccc2n1Cc1ccc(Br)cc1
IC50 [13]: 0.14 µM (active)
AC50 [14]: 2.84 µM (active)
IC50 [15]: 0.369 µM (active)
EC50 [16]: 0.668 µM (active)
EC50 [17]: > 29.9 µM (inactive)
IC50 [18]: 4.4 µM (active)

O=C(NCCCn1ccnc1)C(=O)NCC1OCCN1S(=O)(=O)c1ccc2c(c1)OCCO2 (stereo not drawn)
AC50 [19]: 89.6 µM (active)

CSCC[C@H](NC(=O)OC(C)(C)C)C(=O)N/N=C/c1cccc2cccnc12
AC50 [19]: 132 µM (active)
IC50 [20]: > 79 µM (inactive)

Cn1c(/C=N/n2cnnc2)nc2ccccc21
IC50 [9]: 1.54 µM (active)

C/C(=N\NC(=O)c1cccc(N/N=C(\C)c2ccco2)c1)c1ccco1
IC50 [4]: 3.17 µM (active)
IC50 [2]: 14.8 µM (active)
IC50 [21]: 3.19 µM (active)
IC50 [3]: 10.6 µM (active)

COc1cc2c(O)c3c(c(-c4ccc5c(c4)OCO5)c2cc1OC)C(=O)OC3 [DIPHYLLIN]
IC50 [22]: > 67.6 µM (inactive)
EC50 [23]: > 59.7 µM (inactive)
IC50 [24]: > 67.6 µM (inactive)
EC50 [25]: > 30 µM (not active)
EC50 [26]: 1.65 µM (active)
IC50 [1]: 0.962 µM (active)
EC50 [27]: 33.5 µM (active)
EC50 [28]: 2.59 µM (active)
EC50 [29]: > 59.7 µM (inactive)

Cc1[nH]ccc2c1[nH]c1cc(=O)ccc12 [HARMOL]
AC50 [30]: 23.9 µM (active)
IC50 [12]: 44.9 µM (active)
AC50 [31]: 0.298 µM (active)
